Data on 13 compounds can be found in patent US20140343104A1, “OSTEOGENESIS PROMOTER AND USE THEREOF” (National University Corporation Nagoya University, priority 2011, published 2014).

Each structure is given as a SMILES string.

The subject of assay [1] is P1 promoter region of the human Runx2 gene. Nature of the assay: RUNX2 P1 promoter luciferase reporter assay in BMP-2-induced C3H10T1/2 stable expression strain (primary, secondary, tertiary screening). The class given is cell-based. The conditions noted are these: five times of screening (N=6/time); average of 5 times or even at once. From the text: Existing drugs which increase the promoter activity of the transcription factor Runx2 were exhaustively searched by luciferase assay. Firstly, the P1 promoter region of the human Runx2 gene was inserted into the multiple cloning site of the pGL4 luciferase reporter vector (Promega K.K.) (pGL4.10 vector). The pGL4.10 vector was transfected into the undifferentiated mouse mesenchymal cell line C3H10T1/2, and selectively cultured on a G418-containing medium, thereby establishing the stable expression strain. The cells were seeded on a 96-well (day 1), and human BMP-2 was added to each well on day 2, thereby inducing differentiation into osteoblasts. On the following day, the test compounds (10 μM) composing Prestwick Chemical Library (registered trademark) (Prestwick Chemical Ltd.) were added, and the cells were collected 24 hours after, and subjected to luciferase assay.
In addition to the compounds which made the reporter activity of luciferase (average of 5 times) 1.5 times that of the control, those made the activity 1.5 times than that of the control even at once were selected.

Assay [2] shares this test system. The assay is described as above. The assay is classed as cell-based. The conditions noted are these: three times of screening (N=6/time) at 8 levels of concentration.
Assay [3] relates to luciferase protein. Kind of assay: double luciferase assay, pGL4.10 basic vector and phRL vector cotransfected into C3H10T1/2 cells. The assay is classed as cell-based. As to conditions: pGL4.10 [luc2/SV40] basic vector and phRL [hRluc/TK] vector. The protocol: In order to exclude the possibility of the potential agent to increase the enzymatic activity of luciferase protein, the pGL4. 10 basic vector (pGL4.10 [luc2/SV40] basic vector) and phRLvector (phRL [hRluc/TK] vector) were cotransfected into the C3H10T1/2 cells, the potential agents were individually added, and double luciferase assay was performed.

Assay [4] relates to alkaline phosphatase (ALP) activity. Kind of assay: ALP activity by ELISA in BMP-2-induced C3H10T1/2 cells. The assay is classed as cell-based, mouse. The conditions noted are these: day 5 after the addition of PPI, FIG. 8. The protocol:
(§1) Human osteogenic sarcoma cells (HOSs) and the C3H10T1/2 cells were used in the experiment. Firstly, the cells (HOS or C3H10T1/2) were seeded on a 12-well plate (day 1). When the C3H10T1/2 cells were used, the human BMP-2 was added to each well on the following day. On day 3, PPI (rabeprazole or lansoprazole) was added and cultured for 24 hours, and the cells were collected. Total RNAs were prepared from the collected cells, and the expression of the Runx2 gene was analyzed by the quantitative PCR method.
(§2) Using the HOS cells and the C3H10T1/2 cells cultured in the same manner as in 4-1, and the expression level of the Runx2 protein and the ALP activity which is the index of bone differentiation were evaluated over time. The expression level of the Runx2 protein was evaluated by the Western blot test, and the ALP activity was measured by the ELISA method.
Background: ELISA stands for enzyme-linked immunosorbent assay.

The test system of assay [5] is Runx2 gene. Kind of assay: Runx2 gene expression by quantitative PCR in HOS cells. The assay is classed as cell-based, human. The conditions noted are these: PPI cultured for 24 hours, FIG. 1. The protocol: as §1
Assay [6] concerns Runx2 protein. Nature of the assay: Runx2 protein expression by Western blot in HOS cells. The class given is cell-based, human. As to conditions: 48 hours and 78 hours after the addition of PPI, relative to Gapdh, FIGS. 3 and 4. The protocol: as §1, §2
(In general: In western blotting, separated proteins are transferred to a membrane and probed.)

Assay [7] has as its system Runx2 gene. Kind of assay: Runx2 gene expression by quantitative PCR in BMP-2-induced C3H10T1/2 cells. The class given is cell-based, mouse. The conditions noted are these: C3H10T1/2 cells differentiated by BMP-2; PPI cultured for 24 hours; FIG. 2. How it is done: as §1
Assay [8] relates to Runx2 protein. Kind of assay: Runx2 protein expression by Western blot in BMP-2-induced C3H10T1/2 cells. The class given is cell-based, mouse. The conditions noted are these: C3H10T1/2 cells differentiated by BMP-2; 48 hours and 78 hours after the addition of PPI; relative to Gapdh; FIGS. 5 and 6. How it is done:
as §1, §2

For assay [9], the system named is Runx2 gene. Nature of the assay: Runx2 gene expression in human bone marrow mesenchymal stem cells. The assay is classed as cell-based. As to conditions: PPI-containing bone-inducing media, P0, P1, P2, FIG. 10. How it is done: On the other hand, the human bone marrow mesenchymal stem cells (POIETICS (registered trademark), Lonza Ltd.) were subjected to primary culture (P0) and subcultivation (P1, P2) in the PPI-containing bone-inducing media (culture media containing PPI, dexamethasone, β-glycerophosphoric acid, and ascorbic acid). The bone-inducing medium was replaced every three days. The cells were collected when each of P0, P1, and P2 reached confluent, and the expression of the Runx2 gene was analyzed in the same manner as in 4-1.

Assay [10] deals with Runx2 gene. Kind of assay: Runx2 gene expression in rat cultured bone marrow mesenchymal cells. The class given is cell-based. The conditions noted are these: bone-inducing media, P1, P2, P3, 24 hours after the addition of PPI, FIG. 9. How it is done:
Mesenchymal cells were prepared from a rat bone marrow solution, and cultured (cultured bone marrow mesenchymal cells). Subsequently, the cells were subcultivated (P1, P2, and P3) in bone-inducing media (dexamethasone, β-glycerophosphoric acid, and ascorbic acid were added the culture media). PPI was added when each of the P1, P2, and P3 reached confluent. The cells were collected 24 hours after the addition of PPI, and the expression of the Runx2 gene was analyzed in the same manner as in 4-1.

The subject of assay [11] is rat femur defect model. Nature of the assay: rat femur defect model, soft X-ray. The assay is classed as in vivo. The conditions noted are these: SD rat femur 3 mm defect, ad libitum oral administration. An excerpt:
The left hind femur of an SD rat (male, 9 weeks old) was exposed by anterolateral approach, and an external fixator was installed. The diaphysis was cut by an oscillating saw, (defect amount 3 mm), and the bone was elongated in a single stage, and used as a bone defect model (defect group N=6, control group N=6). Lansoprazole was given to the bone defect model by ad libitum oral administration (about 10 to 20 times the usual human dose), and the bone defect part was photographed periodically by soft X-ray. In addition, the body weight and drinking water amount were periodically measured.

Assay [12] deals with alkaline phosphatase (ALP) activity. Kind of assay: ALP activity by ELISA in HOS cells. As to conditions: day 6 after the addition of PPI, FIG. 7. The class given is cell-based, human. How it is done:
as §1, §2

On to `COc1ccc2cc(CCC(C)=O)ccc2c1` [nabumetone, 4-(6-methoxynaphthalen-2-yl)butan-2-one], for which the “secondary screening: reporter activity of luciferase 1.5 times that of the control” value (from here on “secondary screening: reporter activity”) in assay [1] is “selected”. For the same compound, the “tertiary screening: concentration dependency of the promotion of RUNX2 promoter activity” value (“tertiary screening” for short) in assay [2] is recorded as “concentration dependency”. The “specificity of RUNX2 promoter promotion versus increase of luciferase activity” value in assay [3] is listed as “specifically promote the RUNX2 promoter activity”.

`CCCSc1ccc2nc(NC(=O)OC)[nH]c2c1` [albendazole, methyl n-(6-propylsulfanyl-1H-benzimidazol-2-yl) carbamate]: the “secondary screening: reporter activity” value in assay [1] is reported as “selected”.

Turning to `O=C(O)CCNC(=O)c1ccc(/N=N/c2ccc(O)c(C(=O)O)c2)cc1` [balsalazide sodium, disodium (3Z)-3-[[4-(2-carboxylatoethylcarbamoyl)phenyl]hydrazinylidene]-6-oxocyclohexa-1,4-diene-1-carboxylate dehydrate], the “secondary screening: reporter activity” value in [1] is listed as “selected”.

For `Cc1oncc1C(=O)Nc1ccc(C(F)(F)F)cc1` [leflunomide, 5-methyl-N-[4-(trifluoromethyl)phenyl]-1,2-oxazole-4-carboxamide], the “secondary screening: reporter activity” value in assay [1] was “selected”. In addition, the “tertiary screening” value in [2] is on record as “concentration dependency”. Also, in assay [3], the “specificity of RUNX2 promoter promotion versus increase of luciferase activity” value was “specifically promote the RUNX2 promoter activity”.

Turning to `Cl.Nc1ccc(N=Nc2ccccc2)c(N)n1` [phenazopyridine hydrochloride, 3-phenyldiazenylpyridine-2,6-diamine hydrochloride], the “secondary screening: reporter activity” value in assay [1] was “selected”.

`COC(=O)Nc1nc2ccc(SC(C)C)cc2[nH]1` [methiazole, methyl n-(6-propan-2-ylsulfanyl-1H-benzimidazol-2-yl) carbamate]: the “secondary screening: reporter activity” value in [1] is “selected”.

Take `Cc1c(OCC(F)(F)F)ccnc1C[S+]([O-])c1nc2ccccc2[nH]1` (stereo not shown) [lansoprazole, 2-[[3-methyl-4-(2,2,2-trifluoroethoxy)pyridin-2-yl]methylsulfinyl]-1H-benzimidazole]: in [1], the “secondary screening: reporter activity” value is given as “selected”. For the same compound, the ALP activity entry in assay [4] and in assay [12] was “increase effect” in each case. The “induction of expression of the Runx2 gene” value in assay [5] and in assay [7] was “concentration-dependent activity of inducing the expression of the Runx2 gene” each time. Also, the “Runx2 protein expression level” value in assay [6] and in assay [8] was “expression inducing effect” in each case. In addition, the “tertiary screening” value in assay [2] is listed as “concentration dependency”. In addition, the “induction of the expression of the Runx2 gene” value in [9] and in assay [10] was “expression inducing effect” in each case. Moreover, in assay [11], the osteogenesis promoting effect entry is “marked osteogenesis promoting effect”. Further, in assay [11] (about 10 to 20 times the usual human dose, 12 weeks, N=6), the “animals showing good osteogenesis (bone adhesion on soft X-ray)” value is given as 3/6. Moreover, the “specificity of RUNX2 promoter promotion versus increase of luciferase activity” value in [3] was “specifically promote the RUNX2 promoter activity”.

Regarding `COc1ccc(/C=C/C(=O)Nc2ccccc2C(=O)O)cc1OC` [tranilast, 2-[[(E)-3-(3,4-dimethoxyphenyl)prop-2-enoyl]amino]benzoic acid], the “secondary screening: reporter activity” value in [1] is on record as “selected”. Besides, the “tertiary screening” value in assay [2] is listed as “concentration dependency”. Besides, in assay [3], the “specificity of RUNX2 promoter promotion versus increase of luciferase activity” value is “slightly increase the luciferase activity”.

As to `CC(C(=O)O)c1ccc(N2Cc3ccccc3C2=O)cc1` (stereo not shown) [indoprofen, 2-[4-(3-oxo-1H-isoindol-2-yl)phenyl]propanoic acid], the “secondary screening: reporter activity” value in assay [1] is on record as “selected”.

As to `CC(C(=O)O)c1ccc(C(=O)c2ccccc2)s1` (stereo not shown) [tiaprofenic acid, 2-(5-benzoylthiophen-2-yl)propanoic acid], the “secondary screening: reporter activity” value in [1] was “selected”. In assay [2], the “tertiary screening” value is recorded as “concentration dependency”. In [3], the “specificity of RUNX2 promoter promotion versus increase of luciferase activity” value is on record as “specifically promote the RUNX2 promoter activity”.

In the case of `c1ccc2[nH]c(-c3cscn3)nc2c1` [tiabendazole, 4-(1H-benzimidazol-2-yl)-1,3-thiazole], the “secondary screening: reporter activity” value in assay [1] is “selected”.

Take `COCCCOc1ccnc(C[S+]([O-])c2nc3ccccc3[nH]2)c1C` (stereo not shown) [rabeprazole, 2-[[4-(3-methoxypropoxy)-3-methylpyridin-2-yl]methylsulfinyl]-1H-benzimidazole]: the “secondary screening: reporter activity” value in assay [1] is on record as “selected”. The ALP activity result in assay [4] and in assay [12] was “increase effect” each time. The “induction of expression of the Runx2 gene” value in assay [5] and in [7] was “concentration-dependent activity of inducing the expression of the Runx2 gene” throughout. For the same compound, the “Runx2 protein expression level” value in assay [6] and in assay [8] was “expression inducing effect” throughout. The “tertiary screening” value in assay [2] is “concentration dependency”. Moreover, the “induction of the expression of the Runx2 gene” value in [9] and in assay [10] was “expression inducing effect” each time. The “specificity of RUNX2 promoter promotion versus increase of luciferase activity” value in assay [3] is listed as “specifically promote the RUNX2 promoter activity”.

Consider `O=c1cc(-c2ccc(O)c(O)c2)oc2cc(O)cc(O)c12` [luteolin, 2-(3,4-dihydroxyphenyl)-5,7-dihydroxychromen-4-one], for which the “secondary screening: reporter activity” value in [1] was “selected”.
